Results: patent publication US10040781B2, “Tank-binding kinase inhibitor compounds” (Gilead Sciences, Inc., priority 2014, dated 2018)

What was measured:
IKKε = IKKε (Homo sapiens (Human), UniProt Q14164); assay: IKKε TR-FRET enzymatic assay; format: biochemical; details: read-out: IKKe IC50
TBK1 = TBK1 (Homo sapiens (Human), UniProt Q9UHD2); assay: TBK1 TR-FRET enzymatic assay;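 further: phosphorylation of a biotinylated Ser/Thr peptide by purified full-length recombinant TBK1, read by TR-FRET after 240 min at 25 °C, IC50 is the geometric mean of at least four runs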
Sequence of TBK1 (Q9UHD2 whole entry): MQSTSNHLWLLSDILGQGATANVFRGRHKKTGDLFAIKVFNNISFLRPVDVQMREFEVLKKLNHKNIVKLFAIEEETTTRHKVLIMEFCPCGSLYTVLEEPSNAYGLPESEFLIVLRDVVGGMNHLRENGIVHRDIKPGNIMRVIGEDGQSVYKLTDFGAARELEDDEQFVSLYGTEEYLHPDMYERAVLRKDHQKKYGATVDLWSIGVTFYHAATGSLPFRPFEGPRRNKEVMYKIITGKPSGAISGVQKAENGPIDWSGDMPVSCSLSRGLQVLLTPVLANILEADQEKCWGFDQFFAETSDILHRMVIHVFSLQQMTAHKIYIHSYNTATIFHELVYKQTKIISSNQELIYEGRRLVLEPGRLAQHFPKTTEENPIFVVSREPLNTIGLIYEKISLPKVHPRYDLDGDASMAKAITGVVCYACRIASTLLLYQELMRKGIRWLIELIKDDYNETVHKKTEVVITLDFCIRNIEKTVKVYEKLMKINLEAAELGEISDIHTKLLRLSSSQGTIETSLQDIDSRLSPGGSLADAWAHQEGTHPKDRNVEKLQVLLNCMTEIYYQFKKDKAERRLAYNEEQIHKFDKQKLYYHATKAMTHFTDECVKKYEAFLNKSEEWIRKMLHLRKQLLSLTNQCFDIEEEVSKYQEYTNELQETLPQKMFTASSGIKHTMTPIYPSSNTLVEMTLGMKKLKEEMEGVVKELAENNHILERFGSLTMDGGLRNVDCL

hJAK2 = hJAK2 (Homo sapiens (Human), UniProt O60674); assay: hJAK2 LANCE TR-FRET enzymatic assay; format: biochemical; details: read-out: JAK2 IC50
Sequence of hJAK2 (O60674 whole entry): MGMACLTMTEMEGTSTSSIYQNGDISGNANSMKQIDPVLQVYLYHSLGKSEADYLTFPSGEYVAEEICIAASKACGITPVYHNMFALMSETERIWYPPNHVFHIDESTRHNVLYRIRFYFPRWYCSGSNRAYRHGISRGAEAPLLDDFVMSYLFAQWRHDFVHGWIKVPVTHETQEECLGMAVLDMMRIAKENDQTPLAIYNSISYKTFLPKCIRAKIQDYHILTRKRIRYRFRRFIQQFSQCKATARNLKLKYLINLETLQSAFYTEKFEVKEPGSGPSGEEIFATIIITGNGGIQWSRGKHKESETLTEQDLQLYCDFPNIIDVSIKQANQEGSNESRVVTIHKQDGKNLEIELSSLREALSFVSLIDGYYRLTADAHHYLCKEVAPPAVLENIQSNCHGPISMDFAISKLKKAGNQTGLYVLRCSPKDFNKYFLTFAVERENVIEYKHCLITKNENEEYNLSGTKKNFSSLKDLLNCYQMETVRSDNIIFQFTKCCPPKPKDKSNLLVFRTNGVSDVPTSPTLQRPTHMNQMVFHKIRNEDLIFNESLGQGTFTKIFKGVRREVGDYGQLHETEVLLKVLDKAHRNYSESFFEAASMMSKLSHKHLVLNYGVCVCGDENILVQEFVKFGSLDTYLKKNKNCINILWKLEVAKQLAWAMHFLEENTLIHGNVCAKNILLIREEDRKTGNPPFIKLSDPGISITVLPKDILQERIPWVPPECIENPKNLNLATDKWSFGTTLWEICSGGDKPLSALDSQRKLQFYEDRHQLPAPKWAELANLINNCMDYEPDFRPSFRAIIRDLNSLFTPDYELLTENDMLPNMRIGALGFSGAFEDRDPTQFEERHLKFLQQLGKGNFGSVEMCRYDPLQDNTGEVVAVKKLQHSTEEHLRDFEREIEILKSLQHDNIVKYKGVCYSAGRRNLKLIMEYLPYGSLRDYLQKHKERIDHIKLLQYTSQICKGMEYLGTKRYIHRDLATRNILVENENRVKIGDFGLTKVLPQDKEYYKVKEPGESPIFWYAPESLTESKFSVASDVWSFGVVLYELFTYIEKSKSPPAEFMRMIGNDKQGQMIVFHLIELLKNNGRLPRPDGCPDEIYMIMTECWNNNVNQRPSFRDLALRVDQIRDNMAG

Sequence of IKKε (Q14164 whole entry): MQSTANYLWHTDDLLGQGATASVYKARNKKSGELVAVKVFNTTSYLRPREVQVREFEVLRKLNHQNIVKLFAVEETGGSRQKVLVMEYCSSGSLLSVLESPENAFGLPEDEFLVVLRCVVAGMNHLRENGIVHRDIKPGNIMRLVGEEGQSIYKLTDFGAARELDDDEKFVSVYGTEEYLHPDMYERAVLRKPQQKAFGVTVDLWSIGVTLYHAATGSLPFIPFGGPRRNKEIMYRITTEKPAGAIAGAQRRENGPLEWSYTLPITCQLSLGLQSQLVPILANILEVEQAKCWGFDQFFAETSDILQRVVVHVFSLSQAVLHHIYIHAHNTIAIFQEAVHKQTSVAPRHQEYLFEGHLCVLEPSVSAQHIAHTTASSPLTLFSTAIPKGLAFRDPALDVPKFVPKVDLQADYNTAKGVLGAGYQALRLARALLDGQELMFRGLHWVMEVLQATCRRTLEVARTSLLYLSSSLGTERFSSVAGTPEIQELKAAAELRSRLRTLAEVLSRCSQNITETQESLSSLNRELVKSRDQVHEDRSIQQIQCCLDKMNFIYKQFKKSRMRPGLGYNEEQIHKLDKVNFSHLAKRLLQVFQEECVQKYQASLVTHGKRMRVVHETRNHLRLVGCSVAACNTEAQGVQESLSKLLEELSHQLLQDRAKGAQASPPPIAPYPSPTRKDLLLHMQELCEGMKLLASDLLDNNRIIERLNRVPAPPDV

Structure (SMILES)	IC50 (IKKε) [nM]	IC50 (TBK1) [nM]	IC50 (hJAK2) [nM]
N#Cc1cc(-c2ncnc(Nc3ccc(N4CCN(C5COC5)CC4)cc3)n2)ccc1O[C@@H]1CN(C(=O)CO)C[C@H]1F [Example 193, 2-(((3R,4R)-4-fluoro-1-(2-hydroxyacetyl)pyrrolidin-3-yl)oxy)-5-(4-((4-(4-(oxetan-3-yl)piperazin-1-yl)phenyl)amino)-1,3,5-triazin-2-yl)benzonitrile]	48	14	≥ 1000
CS(=O)(=O)N1CC[C@@H](Oc2ccc(-c3ncnc(Nc4ccc(N5CCN(C6COC6)CC5)cc4)n3)cc2C#N)C1 [Example 197, (R)-2-((1-(methylsulfonyl)pyrrolidin-3-yl)oxy)-5-(4-((4-(4-(oxetan-3-yl)piperazin-1-yl)phenyl)amino)-1,3,5-triazin-2-yl)benzonitrile]	79	26	173
N#Cc1cc(-c2ncnc(Nc3ccc(N4CCN(C5COC5)CC4)cc3)n2)ccc1N1CC[C@@H](F)C1 [Example 200, (R)-2-(3-fluoropyrrolidin-1-yl)-5-(4-((4-(4-(oxetan-3-yl)piperazin-1-yl)phenyl)amino)-1,3,5-triazin-2-yl)benzonitrile]	7	3	109
N#Cc1cc(-c2ncnc(Nc3ccc(N4CCN(C5COC5)CC4)cc3)n2)ccc1N1CC[C@@H](O)C1 [Example 202, (R)-2-(3-hydroxypyrrolidin-1-yl)-5-(4-((4-(4-(oxetan-3-yl)piperazin-1-yl)phenyl)amino)-1,3,5-triazin-2-yl)benzonitrile]	13	3	192
N#Cc1cc(-c2ncnc(Nc3ccc(N4CCN(C5COC5)CC4)cc3)n2)ccc1N1CC[C@H](O)C1 [Example 203, (S)-2-(3-hydroxypyrrolidin-1-yl)-5-(4-((4-(4-(oxetan-3-yl)piperazin-1-yl)phenyl)amino)-1,3,5-triazin-2-yl)benzonitrile]	27	7	315
C[C@@H]1C[C@@H](O)CN1c1ccc(-c2ncnc(Nc3ccc(N4CCN(C5COC5)CC4)cc3)n2)cc1C#N [Example 204, 2-((2R,4R)-4-hydroxy-2-methylpyrrolidin-1-yl)-5-(4-((4-(4-(oxetan-3-yl)piperazin-1-yl)phenyl)amino)-1,3,5-triazin-2-yl)benzonitrile]	18	1	47
N#Cc1cc(-c2ncnc(Nc3ccc(N4CCN(C5COC5)CC4)cc3)n2)ccc1N1CCC2(COC2)C1 [Example 206, 5-(4-((4-(4-(oxetan-3-yl)piperazin-1-yl)phenyl)amino)-1,3,5-triazin-2-yl)-2-(2-oxa-6-azaspiro[3.4]octan-6-yl)benzonitrile]	20	12	236
N#Cc1cc(-c2ncnc(Nc3ccc(N4CCN(C5COC5)CC4)cc3)n2)ccc1N1CCC2(CCO2)C1 (stereo not drawn) [Example 207, 5-(4-((4-(4-(oxetan-3-yl)piperazin-1-yl)phenyl)amino)-1,3,5-triazin-2-yl)-2-(1-oxa-6-azaspiro[3.4]octan-6-yl)benzonitrile]	128	38	258
N#Cc1cc(-c2ncnc(Nc3ccc(N4CCN(C5COC5)CC4)cc3)n2)ccc1N1CCC2(C1)OCCO2 [Example 208, 5-(4-((4-(4-(oxetan-3-yl)piperazin-1-yl)phenyl)amino)-1,3,5-triazin-2-yl)-2-(1,4-dioxa-7-azaspiro[4.4]nonan-7-yl)benzonitrile]	283	64	330
N#Cc1cc(-c2ncnc(Nc3ccc(N4CCN(C5COC5)CC4)cc3)n2)ccc1N1CC2(CCOCC2)C1 [Example 211, 5-(4-((4-(4-(oxetan-3-yl)piperazin-1-yl)phenyl)amino)-1,3,5-triazin-2-yl)-2-(7-oxa-2-azaspiro[3.5]nonan-2-yl)benzonitrile]	22	6	170
N#Cc1cc(-c2ncnc(Nc3ccc(N4CCN(C5COC5)CC4)cc3)n2)ccc1N1CCC2(CCO2)CC1 [Example 214, 5-(4-((4-(4-(oxetan-3-yl)piperazin-1-yl)phenyl)amino)-1,3,5-triazin-2-yl)-2-(1-oxa-7-azaspiro[3.5]nonan-7-yl)benzonitrile]	43	12	301
N#Cc1cccc(-c2ncnc(Nc3ccc(N4CCN(C5COC5)CC4)cc3)n2)c1 [Example 215, 3-(4-((4-(4-(oxetan-3-yl)piperazin-1-yl)phenyl)amino)-1,3,5-triazin-2-yl)benzonitrile]	≥ 1000	1000	657
C[C@H]1C[C@H](Oc2ccc(-c3ncnc(Nc4ccc(N5CCN(C6COC6)CC5)cc4)n3)cc2C#N)CCN1C(=O)CO [Example 221, 2-(((2S,4R)-1-(2-hydroxyacetyl)-2-methylpiperidin-4-yl)oxy)-5-(4-((4-(4-(oxetan-3-yl)piperazin-1-yl)phenyl)amino)-1,3,5-triazin-2-yl)benzonitrile]	68	18	488
C[C@@H]1C[C@H](Oc2ccc(-c3ncnc(Nc4ccc(N5CCN(C6COC6)CC5)cc4)n3)cc2C#N)CCN1C(=O)CO [Example 222, 2-(((2R,4R)-1-(2-hydroxyacetyl)-2-methylpiperidin-4-yl)oxy)-5-(4-((4-(4-(oxetan-3-yl)piperazin-1-yl)phenyl)amino)-1,3,5-triazin-2-yl)benzonitrile]	60	21	182

Further compounds by falling IC50 (IKKε), results first:

IC50 (IKKε) [nM]	IC50 (TBK1) [nM]	IC50 (hJAK2) [nM]	Structure (SMILES)
126	44	626	C[C@@H](O)C(=O)N1CCC(Oc2ccc(-c3ncnc(Nc4ccc(N5CCN(C6COC6)CC5)cc4)n3)cc2C#N)CC1 [Example 219, (R)-2-((1-(2-hydroxypropanoyl)piperidin-4-yl)oxy)-5-(4-((4-(4-(oxetan-3-yl)piperazin-1-yl)phenyl)amino)-1,3,5-triazin-2-yl)benzonitrile]
71	26	354	N#Cc1cc(-c2ncnc(Nc3ccc(N4CCN(C5COC5)CC4)cc3)n2)ccc1N1CC2(CCO2)C1 [Example 210, 5-(4-((4-(4-(oxetan-3-yl)piperazin-1-yl)phenyl)amino)-1,3,5-triazin-2-yl)-2-(1-oxa-6-azaspiro[3.3]heptan-6-yl)benzonitrile]
68	10	265	C[C@H](O)C(=O)N1CC(Oc2ccc(-c3ncnc(Nc4ccc(N5CCN(C6COC6)CC5)cc4)n3)cc2C#N)C(F)(F)C1 (stereo partly drawn) [Example 198, 2-((4,4-difluoro-1-((S)-2-hydroxypropanoyl)pyrrolidin-3-yl)oxy)-5-(4-((4-(4-(oxetan-3-yl)piperazin-1-yl)phenyl)amino)-1,3,5-triazin-2-yl)benzonitrile]
63	29	137	N#Cc1cc(-c2ncnc(Nc3ccc(N4CCN(C5COC5)CC4)cc3)n2)ccc1N1CCC2(CCOCC2)C1 [Example 212, 5-(4-((4-(4-(oxetan-3-yl)piperazin-1-yl)phenyl)amino)-1,3,5-triazin-2-yl)-2-(8-oxa-2-azaspiro[4.5]decan-2-yl)benzonitrile]
29	6	308	N#Cc1cc(-c2ncnc(Nc3ccc(N4CCN(C5COC5)CC4)cc3)n2)ccc1OC1CNCC1(F)F (stereo not drawn) [Example 194, 2-((4,4-difluoropyrrolidin-3-yl)oxy)-5-(4-((4-(4-(oxetan-3-yl)piperazin-1-yl)phenyl)amino)-1,3,5-triazin-2-yl)benzonitrile]
22	8	≥ 1000	C[C@H](O)C(=O)N1CCC(Oc2ccc(-c3ncnc(Nc4ccc(N5CCO[C@@H](CO)C5)cc4)n3)cc2C#N)CC1 [Example 225, 5-(4-((4-((R)-2-(hydroxymethyl)morpholino)phenyl)amino)-1,3,5-triazin-2-yl)-2-((1-((S)-2-hydroxypropanoyl)piperidin-4-yl)oxy)benzonitrile]
17	1	51	C[C@H]1C[C@@H](O)CN1c1ccc(-c2ncnc(Nc3ccc(N4CCN(C5COC5)CC4)cc3)n2)cc1C#N [Example 205, 2-((2S,4R)-4-hydroxy-2-methylpyrrolidin-1-yl)-5-(4-((4-(4-(oxetan-3-yl)piperazin-1-yl)phenyl)amino)-1,3,5-triazin-2-yl)benzonitrile]
14	3	≥ 1000	N#Cc1cc(-c2ncnc(Nc3ccc(N4CCN(C5COC5)CC4)cc3)n2)ccc1N1CCC2(CCOC2)CC1 [Example 213, 5-(4-((4-(4-(oxetan-3-yl)piperazin-1-yl)phenyl)amino)-1,3,5-triazin-2-yl)-2-(2-oxa-8-azaspiro[4.5]decan-8-yl)benzonitrile]
14	4	980	N#Cc1cc(-c2ncnc(Nc3ccc(N4CCN(C5COC5)CC4)cc3)n2)ccc1OC1CCCCC1 [Example 217, 2-(cyclohexyloxy)-5-(4-((4-(4-(oxetan-3-yl)piperazin-1-yl)phenyl)amino)-1,3,5-triazin-2-yl)benzonitrile]
6	4	200	N#Cc1cc(-c2ncnc(Nc3ccc(N4CCN(C5COC5)CC4)cc3)n2)ccc1O[C@@H]1CCC(=O)NC1 [Example 199, (R)-5-(4-((4-(4-(oxetan-3-yl)piperazin-1-yl)phenyl)amino)-1,3,5-triazin-2-yl)-2-((6-oxopiperidin-3-yl)oxy)benzonitrile]
5	1	69	N#Cc1cc(-c2ncnc(Nc3ccc(N4CCN(C5COC5)CC4)cc3)n2)ccc1N1CC[C@H](F)C1 [Example 201, (S)-2-(3-fluoropyrrolidin-1-yl)-5-(4-((4-(4-(oxetan-3-yl)piperazin-1-yl)phenyl)amino)-1,3,5-triazin-2-yl)benzonitrile]
